Tested on: MV-4-11 cells
Test: Gene expression microarray analysis (Affymetrix PrimeView) and GSEA
Format: cell-based, human
Design: RFU PODN (11730768_x_at) / Fold change /veh PODN (11730768_x_at) / RFU LINC00158 (11744669_a_at) / Fold change /veh LINC00158 (11744669_a_at) / RFU DUSP10 (11751237_a_at) / Fold change /veh DUSP10 (11751237_a_at) / RFU ID3 (11757404_x_at) / Fold change /veh ID3 (11757404_x_at) / RFU PLEKHG5 (11737974_s_at) / Fold change /veh PLEKHG5 (11737974_s_at) / RFU LRRC4B (11730491_at) / Fold change /veh LRRC4B (11730491_at) / RFU GIMAP4 (11747438_a_at) / Fold change /veh GIMAP4 (11747438_a_at) / RFU KRT8 (11758183_x_at) / Fold change /veh KRT8 (11758183_x_at) / RFU CNN1 (11734310_a_at) / Fold change /veh CNN1 (11734310_a_at) / RFU VPS37D (11726825_at) / Fold change /veh VPS37D (11726825_at) / RFU C10orf10 (11716522_x_at) / Fold change /veh C10orf10 (11716522_x_at) / RFU KIR2DL2 /// KIR2DL4 /// KIR2DL5A /// KIR2DL5B /// KIR2DS1 /// KIR2DS2 /// KIR2DS3 /// KIR2DS4 /// KIR3DL3 /// KIR3DL3 /// KIR3DS1 (11738374_at) / Fold change /veh KIR2DL2 /// KIR2DL4 /// KIR2DL5A /// KIR2DL5B /// KIR2DS1 /// KIR2DS2 /// KIR2DS3 /// KIR2DS4 /// KIR3DL3 /// KIR3DL3 /// KIR3DS1 (11738374_at) / RFU C1QL1 (11718748_at) / Fold change /veh C1QL1 (11718748_at) / RFU TMPRSS4 (11747572_a_at) / Fold change /veh TMPRSS4 (11747572_a_at) / RFU HAMP (11756126_x_at) / Fold change /veh HAMP (11756126_x_at) / RFU RNFT2 (11725882_a_at) / Fold change /veh RNFT2 (11725882_a_at) / RFU NR4A2 (11747474_a_at) / Fold change /veh NR4A2 (11747474_a_at) / RFU ABCC12 (11746883_a_at) / Fold change /veh ABCC12 (11746883_a_at) / RFU TMEM136 (11760407_x_at) / Fold change /veh TMEM136 (11760407_x_at) / RFU CLDN22 /// WWC2 (11732394_at) / Fold change /veh CLDN22 /// WWC2 (11732394_at) / RFU HLA-DPB1 (11760878_x_at) / Fold change /veh HLA-DPB1 (11760878_x_at) / RFU SPINT1 (11716480_a_at) / Fold change /veh SPINT1 (11716480_a_at) / RFU GAP43 (11754022_s_at) / Fold change /veh GAP43 (11754022_s_at) / RFU A4GNT (11735810_at) / Fold change /veh A4GNT (11735810_at) / RFU PRB3 (11715151_x_at) / Fold change /veh PRB3 (11715151_x_at) / RFU TUBB4B (11761932_at) / Fold change /veh TUBB4B (11761932_at) / RFU CAPN14 (11732068_a_at) / Fold change /veh CAPN14 (11732068_a_at) / RFU TMCC2 (11721928_a_at) / Fold change /veh TMCC2 (11721928_a_at) / RFU IRGQ (11745062_a_at) / Fold change /veh IRGQ (11745062_a_at) / RFU FAM174B (11720279_a_at) / Fold change /veh FAM174B (11720279_a_at) / RFU TMPRSS4 (11748680_a_at) / Fold change /veh TMPRSS4 (11748680_a_at) / RFU FAM212B (11763350_a_at) / Fold change /veh FAM212B (11763350_a_at) / RFU PLEKHG5 (11743358_a_at) / Fold change /veh PLEKHG5 (11743358_a_at) / RFU ZSCAN30 (11745921_a_at) / Fold change /veh ZSCAN30 (11745921_a_at) / RFU CMKLR1 (11741424_a_at) / Fold change /veh CMKLR1 (11741424_a_at) / RFU LOC101060620 /// MAPK8IP1 (11723275_at) / Fold change /veh LOC101060620 /// MAPK8IP1 (11723275_at) / RFU SPTSSB (11747773_x_at) / Fold change /veh SPTSSB (11747773_x_at) / RFU PRSS12 (11739890_at) / Fold change /veh PRSS12 (11739890_at) / RFU BIN1 (11741810_x_at) / Fold change /veh BIN1 (11741810_x_at) / RFU WNT11 (11732464_a_at) / Fold change /veh WNT11 (11732464_a_at) / RFU C10orf10 (11716521_a_at) / Fold change /veh C10orf10 (11716521_a_at) / RFU C5orf56 (11738089_at) / Fold change /veh C5orf56 (11738089_at) / RFU CYB561 (11721691_x_at) / Fold change /veh CYB561 (11721691_x_at) / RFU ANKRD19P (11752326_a_at) / Fold change /veh ANKRD19P (11752326_a_at) / RFU OR2T12 /// OR2T33 /// OR2T8 (11738714_s_at) / Fold change /veh OR2T12 /// OR2T33 /// OR2T8 (11738714_s_at) / RFU VCAN (11748164_a_at) / Fold change /veh VCAN (11748164_a_at) / RFU JSRP1 (11732532_at) / Fold change /veh JSRP1 (11732532_at) / RFU KRTAP10-11 (11738290_x_at) / Fold change /veh KRTAP10-11 (11738290_x_at) / RFU MYO3A (11730013_a_at) / Fold change /veh MYO3A (11730013_a_at) / RFU EBF3 (11725865_a_at) / Fold change /veh EBF3 (11725865_a_at) / RFU CAMK2N1 (11719241_x_at) / Fold change /veh CAMK2N1 (11719241_x_at) / RFU C5orf56 (11738088_a_at) / Fold change /veh C5orf56 (11738088_a_at) / RFU OLFML3 (11715873_a_at) / Fold change /veh OLFML3 (11715873_a_at) / RFU LOC100653217 /// NTM (11731650_a_at) / Fold change /veh LOC100653217 /// NTM (11731650_a_at) / RFU MAPK11 (11762145_a_at) / Fold change /veh MAPK11 (11762145_a_at) / RFU FIZ1 (11724087_x_at) / Fold change /veh FIZ1 (11724087_x_at) / RFU OASL (11726364_x_at) / Fold change /veh OASL (11726364_x_at) / RFU SOX15 (11748057_x_at) / Fold change /veh SOX15 (11748057_x_at) / RFU CD79A (11719716_a_at) / Fold change /veh CD79A (11719716_a_at) / RFU HIST1H1D (11736915_at) / Fold change /veh HIST1H1D (11736915_at) / RFU CASKIN2 (11723855_a_at) / Fold change /veh CASKIN2 (11723855_a_at) / RFU LOC730098 (11760151_x_at) / Fold change /veh LOC730098 (11760151_x_at) / RFU OR4N2 (11742367_at) / Fold change /veh OR4N2 (11742367_at) / RFU PRRT2 (11749266_a_at) / Fold change /veh PRRT2 (11749266_a_at) / RFU SNX32 (11753110_a_at) / Fold change /veh SNX32 (11753110_a_at) / RFU CDHR5 (11726645_a_at) / Fold change /veh CDHR5 (11726645_a_at) / RFU RCAN1 (11760418_a_at) / Fold change /veh RCAN1 (11760418_a_at) / RFU FAM167A (11723789_a_at) / Fold change /veh FAM167A (11723789_a_at) / RFU FAM26E (11764081_at) / Fold change /veh FAM26E (11764081_at) / RFU ISYNA1 (11749810_s_at) / Fold change /veh ISYNA1 (11749810_s_at) / RFU ACY1 (11761880_at) / Fold change /veh ACY1 (11761880_at) / RFU 11764098_at / Fold change /veh 11764098_at / RFU SAMD14 (11745864_x_at) / Fold change /veh SAMD14 (11745864_x_at) / RFU NPB (11741838_a_at) / Fold change /veh NPB (11741838_a_at) / RFU TMPRSS6 (11731388_a_at) / Fold change /veh TMPRSS6 (11731388_a_at) / RFU KRTAP10-2 (11738614_at) / Fold change /veh KRTAP10-2 (11738614_at) / RFU ARHGAP8 /// PRR5-ARHGAP8 (11727945_x_at) / Fold change /veh ARHGAP8 /// PRR5-ARHGAP8 (11727945_x_at) / RFU KRTAP5-7 /// NADSYN1 (11734609_at) / Fold change /veh KRTAP5-7 /// NADSYN1 (11734609_at) / RFU RASL12 (11751679_a_at) / Fold change /veh RASL12 (11751679_a_at) / RFU CDKN2B (11736163_a_at) / Fold change /veh CDKN2B (11736163_a_at) / RFU PRF1 (11729649_at) / Fold change /veh PRF1 (11729649_at) / RFU, ZNF638 /// ZNF638-IT1 / Fold change vs veh, ZNF638 /// ZNF638-IT1 / RFU, PANK3 / Fold change vs veh, PANK3 / RFU, SH3YL1 / Fold change vs veh, SH3YL1 / RFU, ZEB2 / Fold change vs veh, ZEB2 / RFU, NRIP1 / Fold change vs veh, NRIP1 / RFU, PTTG1IP / Fold change vs veh, PTTG1IP / RFU, CAPN2 / Fold change vs veh, CAPN2 / RFU, MED14 / Fold change vs veh, MED14 / RFU, SNORA58 / Fold change vs veh, SNORA58 / RFU, C1orf63 / Fold change vs veh, C1orf63 / RFU, LRRFIP1 / Fold change vs veh, LRRFIP1 / RFU, NDUFAF7 / Fold change vs veh, NDUFAF7 / RFU, SLC12A2 / Fold change vs veh, SLC12A2 / RFU, IBTK / Fold change vs veh, IBTK / RFU, ESF1 / Fold change vs veh, ESF1 / Fold change vs veh, TMEM50B / RFU, TAOK1 / Fold change vs veh, TAOK1 / RFU, ACBD3 / Fold change vs veh, ACBD3 / RFU, TMA16 / Fold change vs veh, TMA16 / RFU, RWDD3 / Fold change vs veh, RWDD3 / RFU, BCAT1 / Fold change vs veh, BCAT1 / RFU, EDEM3 / Fold change vs veh, EDEM3 / RFU, TMEM33 / Fold change vs veh, TMEM33 / RFU, WDR75 / Fold change vs veh, WDR75 / RFU, AHCTF1 / Fold change vs veh, AHCTF1 / RFU, TFRC / Fold change vs veh, TFRC / RFU, ZDHHC17 / Fold change vs veh, ZDHHC17 / RFU, NOM1 / Fold change vs veh, NOM1 / RFU, ARL8B / Fold change vs veh, ARL8B / RFU, ZBTB11 / Fold change vs veh, ZBTB11 / RFU, TAMM41 / Fold change vs veh, TAMM41 / RFU, KIAA1704 /// LOC100996395 / Fold change vs veh, KIAA1704 /// LOC100996395 / RFU, ING1 / Fold change vs veh, ING1 / RFU, TRMT61B / Fold change vs veh, TRMT61B / RFU, FUBP3 / Fold change vs veh, FUBP3 / RFU, TP53 / Fold change vs veh, TP53 / RFU, TNKS2 / Fold change vs veh, TNKS2 / RFU, ZFP14 / Fold change vs veh, ZFP14 / RFU, ACTR2 / Fold change vs veh, ACTR2 / RFU, PPP3R1 / Fold change vs veh, PPP3R1 / RFU, PIK3R1 / Fold change vs veh, PIK3R1 / RFU, HNRNPA1 / Fold change vs veh, HNRNPA1 / RFU, RNF170 / Fold change vs veh, RNF170 / RFU, ZNF28 / Fold change vs veh, ZNF28 / RFU, RNGTT / Fold change vs veh, RNGTT / RFU, OGT / Fold change vs veh, OGT / RFU, BRD1 / Fold change vs veh, BRD1 / RFU, MARS / Fold change vs veh, MARS / RFU, ZNF655 / Fold change vs veh, ZNF655 / RFU, FAHD1 / Fold change vs veh, FAHD1 / RFU, BDP1 / Fold change vs veh, BDP1 / RFU, LRRCC1 / Fold change vs veh, LRRCC1 / RFU, ARID1A / Fold change vs veh, ARID1A / RFU, ZNF146 / Fold change vs veh, ZNF146 / RFU, ZNF330 / Fold change vs veh, ZNF330 / RFU, GPN3 / Fold change vs veh, GPN3 / RFU, C9orf123 / Fold change vs veh, C9orf123 / RFU, N4BP2L2 / Fold change vs veh, N4BP2L2 / RFU, ARFIP1 / Fold change vs veh, ARFIP1 / RFU, FAM179B / Fold change vs veh, FAM179B / RFU, BCL10 / Fold change vs veh, BCL10 / RFU, UHRF1BP1L / Fold change vs veh, UHRF1BP1L / RFU, BET1 / Fold change vs veh, BET1 / RFU, CNOT2 / Fold change vs veh, CNOT2 / RFU, ZNF268 / Fold change vs veh, ZNF268 / Fold change vs veh, ZNF507 / RFU, DGCR2 / Fold change vs veh, DGCR2 / RFU, WDSUB1 / Fold change vs veh, WDSUB1 / Fold change vs veh, HSP90B1 /// MIR3652 / RFU, ADSS / Fold change vs veh, ADSS / RFU, GK / Fold change vs veh, GK / RFU, ZNF148 / Fold change vs veh, ZNF148 / RFU, TAF9 / Fold change vs veh, TAF9 / RFU, SLC1A5 / Fold change vs veh, SLC1A5 / RFU, SLMO2 / Fold change vs veh, SLMO2 / RFU, ABCC4 / Fold change vs veh, ABCC4 / RFU, LOC101060439 /// RAP1B / Fold change vs veh, LOC101060439 /// RAP1B / RFU, RFX7 / Fold change vs veh, RFX7 / RFU, GTPBP10 / Fold change vs veh, GTPBP10 / RFU, CNEP1R1 / Fold change vs veh, CNEP1R1 / RFU, BIVM-ERCC5 /// ERCC5 / Fold change vs veh, BIVM-ERCC5 /// ERCC5 / RFU, ILF3 / Fold change vs veh, ILF3 / RFU 11762660_at / Fold change /veh 11762660_at / RFU VCAN (11757783_s_at) / Fold change /veh VCAN (11757783_s_at) / RFU DDX43 (11728927_at) / Fold change /veh DDX43 (11728927_at) / RFU KRT8 (11758188_x_at) / Fold change /veh KRT8 (11758188_x_at) / RFU NKD1 (11759106_at) / Fold change /veh NKD1 (11759106_at) / RFU SRD5A1 (11742802_a_at) / Fold change /veh SRD5A1 (11742802_a_at) / RFU TPSAB1 /// TPSB2 (11721975_s_at) / Fold change /veh TPSAB1 /// TPSB2 (11721975_s_at) / RFU GSTM3 (11746129_a_at) / Fold change /veh GSTM3 (11746129_a_at) / RFU IL23R (11737362_x_at) / Fold change /veh IL23R (11737362_x_at) / RFU TMEM51 (11727254_a_at) / Fold change /veh TMEM51 (11727254_a_at) / RFU PIWIL2 (11732686_x_at) / Fold change /veh PIWIL2 (11732686_x_at) / RFU ORM1 (11744905_x_at) / Fold change /veh ORM1 (11744905_x_at) / RFU CCDC152 (11743942_at) / Fold change /veh CCDC152 (11743942_at) / RFU ECM1 (11717891_a_at) / Fold change /veh ECM1 (11717891_a_at) / RFU IL23R (11748794_a_at) / Fold change /veh IL23R (11748794_a_at) / RFU TNFAIP8L3 (11732012_x_at) / Fold change /veh TNFAIP8L3 (11732012_x_at) / RFU MBOAT4 (11741988_at) / Fold change /veh MBOAT4 (11741988_at) / RFU 11764193_at / Fold change /veh 11764193_at / RFU TMEM53 (11763286_at) / Fold change /veh TMEM53 (11763286_at) / RFU MAGEB2 (11727129_at) / Fold change /veh MAGEB2 (11727129_at) / RFU TMEM200A (11744735_a_at) / Fold change /veh TMEM200A (11744735_a_at) / RFU CCDC152 (11751479_a_at) / Fold change /veh CCDC152 (11751479_a_at) / RFU FAM211A (11726209_a_at) / Fold change /veh FAM211A (11726209_a_at) / RFU RGS16 (11746705_a_at) / Fold change /veh RGS16 (11746705_a_at) / RFU VCAN (11755009_s_at) / Fold change /veh VCAN (11755009_s_at) / RFU RHOB (11743442_s_at) / Fold change /veh RHOB (11743442_s_at) / RFU RGS16 (11720943_a_at) / Fold change /veh RGS16 (11720943_a_at) / RFU RGS16 (11720944_at) / Fold change /veh RGS16 (11720944_at) / RFU, VPS4B / Fold change vs veh, VPS4B / RFU, CREB1 / Fold change vs veh, CREB1 / RFU, DNAJC13 / Fold change vs veh, DNAJC13 / RFU, GNAQ / Fold change vs veh, GNAQ / RFU, CDK5R1 / Fold change vs veh, CDK5R1 / RFU, ZRANB3 / Fold change vs veh, ZRANB3 / RFU, CUL4A / Fold change vs veh, CUL4A / RFU, CCNY / Fold change vs veh, CCNY / RFU, UFL1 / Fold change vs veh, UFL1 / RFU, COG3 / Fold change vs veh, COG3 / RFU, DIAPH2 / Fold change vs veh, DIAPH2 / RFU, SKA2 / Fold change vs veh, SKA2 / RFU, AFF3 / Fold change vs veh, AFF3 / RFU, LMF1 / Fold change vs veh, LMF1 / RFU, IPO11 / Fold change vs veh, IPO11 / RFU, DFFB / Fold change vs veh, DFFB / RFU, FOXP1 / Fold change vs veh, FOXP1 / RFU, CARD8 / Fold change vs veh, CARD8 / RFU, STRN3 / Fold change vs veh, STRN3 / RFU, ADK / Fold change vs veh, ADK / RFU, RASSF2 / Fold change vs veh, RASSF2 / RFU, WIPF1 / Fold change vs veh, WIPF1 / RFU, LARP1B / Fold change vs veh, LARP1B / RFU, RASA1 / Fold change vs veh, RASA1 / RFU, RB1 / Fold change vs veh, RB1 / RFU, PPFIA1 / Fold change vs veh, PPFIA1 / RFU, MAT2A / Fold change vs veh, MAT2A / RFU, CCT5 / Fold change vs veh, CCT5 / RFU, WDR92 / Fold change vs veh, WDR92 / RFU, CUX1 / Fold change vs veh, CUX1 / RFU, TTC7A / Fold change vs veh, TTC7A / RFU, TMEM135 / Fold change vs veh, TMEM135 / RFU, DEPTOR / Fold change vs veh, DEPTOR / RFU, CPM / Fold change vs veh, CPM / RFU, DNAJB6 / Fold change vs veh, DNAJB6 / RFU, CACNA2D3 / Fold change vs veh, CACNA2D3 / RFU, DTX4 / Fold change vs veh, DTX4 / RFU, TFCP2 / Fold change vs veh, TFCP2 / RFU, GMCL1 /// GMCL1P1 / Fold change vs veh, GMCL1 /// GMCL1P1 / RFU, AEBP2 / Fold change vs veh, AEBP2 / RFU, SNHG1 /// SNORD22 /// SNORD25 /// SNORD26 /// SNORD27 /// SNORD28 /// SNORD29 /// SNORD31 / Fold change vs veh, SNHG1 /// SNORD22 /// SNORD25 /// SNORD26 /// SNORD27 /// SNORD28 /// SNORD29 /// SNORD31 / Fold change (Aza/veh), C12orf56 (ProbeSet 11735607_a_at) / Fold change (ACY-1035/veh), C12orf56 (ProbeSet 11735607_a_at) / Fold change (Aza/veh), FGFR1OP (ProbeSet 11751329_s_at) / Fold change (ACY-1035/veh), FGFR1OP (ProbeSet 11751329_s_at) / Fold change (Aza/veh), VPS36 (ProbeSet 11739960_a_at) / Fold change (ACY-1035/veh), VPS36 (ProbeSet 11739960_a_at) / RFU SYPL1 (11715823_x_at) / Fold change /veh SYPL1 (11715823_x_at) / RFU IGFBP7 (11715501_s_at) / Fold change /veh IGFBP7 (11715501_s_at) / RFU REEP3 (11722064_at) / Fold change /veh REEP3 (11722064_at) / RFU IGLL1 (11728026_x_at) / Fold change /veh IGLL1 (11728026_x_at): dose or concentration left out as unconfirmed
Conditions: MV-4-11 cells, 48 hours

**Q.** `Nc1ccc(-c2cccs2)cc1NC(=O)c1ccc2c(c1)cc(C1CC1)n2CCN1CCOCC1` [ACY-1035] was tested. Which “Fold change /veh 11762660_at” value did it give?
**A.** 0.98

Source: paper PMC5218480 (PLoS ONE, 2017)
